Measured values from PMC12445698 (2025).

What was measured:
Test in all cases: ITC
Conditions in all cases: 50 mM KCl, 10 mM MgCl2; 40 mM HEPES pH 7.4
[1] = tested on: U38C (RNA, riboswitch) GGGUUGUAUAAGCUCGUUAAUUUGGAAUGAGCGUAUCCACAGGCAACCGUAAAUUGCCCCAGGCUACAAUC
[2] = tested on: I39C (RNA, riboswitch) GGGUUGUAUAAGCUCGUUAAUUUGGAAUGAGCGUAUCUACCAGGCAACCGUAAAUUGCCCCAGGCUACAAUC
[3] = tested on: U38G-I39C (RNA, riboswitch) GGGUUGUAUAAGCUCGUUAAUUUGGAAUGAGCGUAUCGACCAGGCAACCGUAAAUUGCCCCAGGCUACAAUC

| Kd [1] [µM] | Kd [2] [µM] | Kd [3] [µM] | SMILES |
| --- | --- | --- | --- |
| 1.3 | 0.0017 |  | Nc1nc2[nH]cnc2c(=O)[nH]1 |
|  | 9.79 | 14.6 | O=c1[nH]c(=O)c2[nH]cnc2[nH]1 |
